Tests used:
A549 NSCLC cell line = assay: Sensitivity of tumor cells to EGFR kinase inhibitor; type: cell-based, human; conditions: phenotype Mixed
Description: (§1) The human NSCLC lines H1299, H266, H522, H650, H1437, H1155, Calu1, Hop92, H23, H292, H358, H322, H441, A549, Calu6, H460, H1703 and SW1573 were cultured in the appropriate ATCC recommended supplemented media. Cell extracts were prepared by detergent lysis (50 mM Tris-HCl, pH8, 150 mM NaCl, 1% NP-40, 0.5% NaDeoxycholate, 0.1% SDS) containing protease and phosphatase inhibitors. The soluble protein concentration was determined by micro-BSA assay (Pierce, Rockford Ill.). In experiments monitoring serum stimulation, cells were grown in media with 0.5% FBS for 24 hours followed by addition of FBS to a final concentration of 10% for 10 minutes prior to lysis. In experiments where inhibitor treatment was required, inhibitor was added at the indicated concentration and the cells the stimulated with the indicated ligand. For cell proliferation assays cells were plated, inhibitor added and proliferation measured after 72 hours using the CELLTITERGLO™ cell viability assay (Promega, Madison Wis.).

CALU1 NSCLC cell line = assay: as above; type: cell-based, human; conditions: phenotype Mesenchymal-like
Description: as §1

CALU6 NSCLC cell line = assay: as above; type: cell-based, human; conditions: phenotype Mesenchymal-like
Description: as §1

H1155 NSCLC cell line = assay: as above; type: cell-based, human; conditions: phenotype Mesenchymal-like
Description: as §1

H1299 NSCLC cell line = assay: as above; type: cell-based, human; conditions: phenotype Mesenchymal-like
Description: as §1

H1437 NSCLC cell line = assay: as above; type: cell-based, human; conditions: phenotype Epithelial
Description: as §1

H1703 NSCLC cell line = assay: as above; type: cell-based, human; conditions: phenotype Mesenchymal-like
Description: as §1

H226 NSCLC cell line = assay: as above; type: cell-based, human; conditions: phenotype Mesenchymal-like
Description: as §1

H23 NSCLC cell line = assay: as above; type: cell-based, human; conditions: phenotype Mesenchymal-like
Description: as §1

H292 NSCLC cell line = assay: as above; type: cell-based, human; conditions: phenotype Epithelial
Description: as §1

H322 NSCLC cell line = assay: as above; type: cell-based, human; conditions: phenotype Epithelial
Description: as §1

H358 NSCLC cell line = assay: as above; type: cell-based, human; conditions: phenotype Epithelial
Description: as §1

H441 NSCLC cell line = assay: as above; type: cell-based, human; conditions: phenotype Epithelial
Description: as §1

H460 NSCLC cell line = assay: as above; type: cell-based, human; conditions: phenotype Mesenchymal-like
Description: as §1

H522 NSCLC cell line = assay: as above; type: cell-based, human; conditions: phenotype Mesenchymal-like
Description: as §1

H650 NSCLC cell line = assay: as above; type: cell-based, human; conditions: phenotype Mesenchymal-like
Description: as §1

HOP92 NSCLC cell line = assay: as above; type: cell-based, human; conditions: phenotype Mesenchymal-like
Description: as §1

SW1573 NSCLC cell line = assay: as above; type: cell-based, human; conditions: phenotype Mesenchymal-like
Description: as §1

Calu6 NSCLC xenograft = assay: Xenograft tumor growth inhibition; type: in vivo, CD-1 nu/nu mice; conditions: Calu6 xenograft in mice; 100 mg/kg once a day for 14 days, oral gavage
Description: (§2) FIG. 9: Sensitivity of NSCLC cell lines to erlotinib In Vivo. Female CD-1 nu/nu mice were implanted with H292 or Calu6 cells and tumor allowed to grow to 200 mm^3. Animals were then either left untreated or treated with 100 mg/kg erlotinib once a day for 14 days. Tumor volume was measured twice weekly.
(§3) Female CD-1 nu/nu mice (Charles River Laboratories, Wilmington, Mass.) were implanted with harvested NSCLC tumor cells in a single subcutaneous site on the flank of the mice in the axillary region. Tumors were allowed to grow to 200±50 mm^3, at which time the animals were sorted into treatment groups of 8 animals per group based on weight (±1 g body weight) and tattooed on the tail for permanent identification. Tumor volumes and body weights were determined twice weekly. The tumor volume was determined by measuring in two directions with vernier calipers and calculated using the formula: Tumor volume=(length×width^2)/2. The data were plotted as the % change in mean values of tumor volume and body weight for each group. The tumor growth inhibition (% TGI) was determined as % TGI=[…]: where Wt is the median tumor volume of the treated group at time x and Wc is the median tumor volume of the control group at time x. TARCEVA® was dosed in a 6% Captisol (CyDex, Inc) in WFI (Water for Injection) solution and all control animals were dosed with an equal volume of the vehicle. […]

H292 NSCLC xenograft = assay: Xenograft tumor growth inhibition; type: in vivo, CD-1 nu/nu mice; conditions: H292 xenograft in mice; 100 mg/kg once a day for 14 days, oral gavage
Description: as §2, §3

H1703 cells [1] = assay: Cell proliferation, CellTitreGlo assay; type: cell-based, human
Description: (§4) FIG. 3: Inhibition of PDGFR activity in NSCLC. A. H1703 cells were treated with increasing concentrations of PDGFR inhibitor 1 (OSI-930) (▪), PDGFR inhibitor 2 (▴) or an EGFR inhibitor (erlotinib) (▾). After 72 hours incubation proliferation of the cells was measured by CellTitreGlo assay and plotted as a % proliferation relative to untreated cells. B. H1703 cells were treated with the PDGFR inhibitor OSI-930 for 2 hours and then left untreated or treated with PDGF (10 ng/ml) for 15 mins. Protein extracts were prepared and immunoblots probed with the indicated antibodies C. H1703 and Calu1 cells were treated with either 1 or 5 μM of PDGFR inhibitor OSI-930 and the effect on closure of the wound analysed after 24 hrs.
(§5) FIG. 6: Inhibition of FGFR activity in NSCLC. A. H1703 (▪), Calu1 (▴) and H226 (▾) cells were treated with increasing concentrations of FGFR inhibitor (PD173074). After 72 hours incubation proliferation of the cells was measured by CellTitreGlo assay and plotted as a % proliferation relative to untreated cells.
as §1

Calu1 cells [2] = assay: Cell proliferation, CellTitreGlo assay; type: cell-based, human
Description: as §5, §1

H226 cells = assay: Cell proliferation, CellTitreGlo assay; type: cell-based, human
Description: as §5, §1

H358 cells = assay: Cell proliferation, CellTitreGlo assay; type: cell-based, human
Description: as §1

[3] = system: ERK MAP kinase and AKT pathways in H1703 cells; assay: Intracellular signaling, immunoblot of pERK and pAKT; type: cell-based, human; design: AKT pathway inhibition: dose or concentration left out as unconfirmed
Description: as §4
(§6) FIG. 7: Inhibition of FGFR Signaling in H1703 and H226 NSCLC Cells. H1703 and H226 cells were treated with either […] PD173074 for 2 hours and then left untreated (CON) or treated with 10 ng/ml FGF for 15 min (FGF). Cell lysates were prepared and immunoblots using antibodies against pERK, total ERK, pAKT (ser473), total AKT and β-actin were performed.
as §1, with “Wis.). […]” for “Wis.).”

[4] = system: ERK MAP kinase and AKT pathways in H226 cells; assay: as above; type: cell-based, human
Description: as §6
as §1, with “Wis.). […]” for “Wis.).”

Calu1 cells [5] = assay: Cell motility, closure of the wound; type: cell-based, human; conditions: 1 or 5 μM, 24 hrs
Description: as §4

H1703 cells [6] = assay: Cell motility, closure of the wound; type: cell-based, human; conditions: 1 or 5 μM, 24 hrs
Description: as §4

[7] = system: ERK MAP kinase and AKT pathways in Calu1 cells; assay: Intracellular signaling, immunoblot of pERK and pAKT; type: cell-based, human; conditions: presence or absence of exogenously added ligand
Description: as §1
Protein immunodetection was performed by electrophoretic transfer of SDS-PAGE separated proteins to nitrocellulose, incubation with antibody and chemiluminescent detection (PicoWest; Pierce, Rockford, Ill.). […]

[8] = 0.5% FCS and PDGF (mixed AA, AB and BB forms) added
[9] = increasing concentrations, 72 hours
[10] = for 2 hours, basal and FGF (10 ng/ml, 15 min) stimulated

## C#Cc1cccc(Nc2ncnc3cc(OCCOC)c(OCCOC)cc23)c1 [Erlotinib, [6,7-bis(2-methoxyethoxy)-4-quinazolin-4-yl]-(3-ethynylphenyl) amine]
A549 NSCLC cell line
  Erlotinib Senistivity: Intermediate
CALU1 NSCLC cell line
  Erlotinib Senistivity: Insensitive
CALU6 NSCLC cell line
  Erlotinib Senistivity: Insensitive
H1155 NSCLC cell line
  Erlotinib Senistivity: Insensitive
H1299 NSCLC cell line
  Erlotinib Senistivity: Insensitive
H1437 NSCLC cell line
  Erlotinib Senistivity: Insensitive
H1703 NSCLC cell line
  Erlotinib Senistivity: Insensitive
H1703 NSCLC cell line; listed as erlotinib
  Erlotinib Senistivity: insensitive
H226 NSCLC cell line
  Erlotinib Senistivity: Insensitive
H23 NSCLC cell line
  Erlotinib Senistivity: Insensitive
H23 NSCLC cell line; listed as erlotinib
  Erlotinib Senistivity: insensitive
H292 NSCLC cell line
  Erlotinib Senistivity: Sensitive
H322 NSCLC cell line
  Erlotinib Senistivity: Sensitive
H358 NSCLC cell line
  Erlotinib Senistivity: Sensitive
H441 NSCLC cell line
  Erlotinib Senistivity: Sensitive
H460 NSCLC cell line
  Erlotinib Senistivity: Insensitive
H522 NSCLC cell line
  Erlotinib Senistivity: Insensitive
H650 NSCLC cell line
  Erlotinib Senistivity: Insensitive
HOP92 NSCLC cell line
  Erlotinib Senistivity: Insensitive
HOP92 NSCLC cell line; listed as erlotinib
  Erlotinib Senistivity: insensitive
SW1573 NSCLC cell line
  Erlotinib Senistivity: Insensitive
Calu6 NSCLC xenograft
  Xenograft growth, tumor volume: insensitive to EGFR inhibition
H292 NSCLC xenograft
  Xenograft growth, tumor volume: sensitive to EGFR inhibition and shows a reduction in tumor volume during the dosing period

## O=C(Nc1ccc(OC(F)(F)F)cc1)c1sccc1NCc1ccnc2ccccc12 [OSI-930]
H1703 cells [1]; [8]
  Inhibition of cell growth (proliferation): inhibited more potently
H1703 cells [1]; 10% FCS, 72 hours
  Inhibition of cell growth (proliferation): Inhibition of cell growth
Calu1 cells [2]; [8]
  Inhibition of cell growth (proliferation): failed to show any enhanced growth inhibition
Calu1 cells [2]; 10% FCS, 72 hours
  Inhibition of cell growth (proliferation): not growth inhibited
H226 cells; [8]
  Inhibition of cell growth (proliferation): failed to show any enhanced growth inhibition
H226 cells; 10% FCS, 72 hours
  Inhibition of cell growth (proliferation): not growth inhibited
H358 cells; [8]
  Inhibition of cell growth (proliferation): failed to show any enhanced growth inhibition
H358 cells; 10% FCS, 72 hours
  Inhibition of cell growth (proliferation): only observed in H1703 cells
[3]; inhibitor 2 hours, basal (10% FCS) and ligand stimulated (PDGF 10 ng/ml, 15 mins)
  Phosphorylation of ERK MAP kinase and AKT (serine 473): reduced phosphorylation of ERK MAP kinase and AKT (on serine 473)
[4]; basal and PDGF ligand stimulated
  Inhibition of ERK and AKT pathways: only showed ligand induced inhibition of ERK and AKT pathways
Calu1 cells [5]
  Cell motility (closure of the wound): inhibition of cell motility
H1703 cells [6]
  Cell motility (closure of the wound): inhibition of cell motility

## CCN(CC)CCCCNc1ncc2cc(-c3cc(OC)cc(OC)c3)c(NC(=O)NC(C)(C)C)nc2n1 [PD173074]
H1703 cells [1]; [9]
  Growth inhibition (proliferation): growth inhibited
Calu1 cells [2]; [9]
  Growth inhibition (proliferation): little effect
H226 cells; [9]
  Growth inhibition (proliferation): growth inhibited
[3]; [10]
  Activation of the ERK MAP kinase pathway: inhibited
[3]; for 2 hours, basal and FGF stimulated
  AKT pathway inhibition: only inhibited after ligand stimulation
[4]; [10]
  Activation of the ERK MAP kinase pathway: inhibited
[7]
  Signaling (ERK, AKT): unaffected
